# Laboratory results published in ChEMBL document CHEMBL1127759, “Synthesis and in vitro cytotoxicity of 6-vinyluridine and related compounds” (Bioorg Med Chem Lett, 1994).
# Test system: L1210
# Assay: In vitro growth inhibitory activity against mouse L1210 leukemia cells
# Assay type: functional, cell-based
row,Compound,IC50 [µM]
1,CCOC(=O)/C(Br)=C\c1cc(O)nc(O)n1,1
2,C/C=C/c1cc(O)nc(O)n1,> 90
3,C=Cc1nc(O)nc(O)c1Br,11
4,C/C=C\c1cc(O)nc(O)n1,46
5,CCOC(=O)/C(Cl)=C\c1cc(O)nc(O)n1,3
6,C=Cc1cc(O)nc(O)n1,3
7,C=Cc1nc(O)nc(O)c1Cl,4.5
8,C=Cc1nc(O)nc(O)c1I,2
9,CCOC(=O)/C=C/c1cc(O)nc(O)n1,38
10,COC(=O)/C(Br)=C\c1cc(=O)[nH]c(=O)n1C1O[C@H](CO)[C@@H](O)[C@H]1O (some centres undefined),> 25
11,CCOC(=O)/C(C)=C/c1cc(=O)[nH]c(=O)n1C1O[C@H](CO)[C@@H](O)[C@H]1O (some centres undefined),> 30
12,CCOC(=O)/C=C/c1cc(=O)[nH]c(=O)n1C1O[C@H](CO)[C@@H](O)[C@H]1O (some centres undefined),> 35
13,C/C=C/c1cc(=O)[nH]c(=O)n1C1O[C@H](CO)[C@@H](O)[C@H]1O (some centres undefined),> 35
14,C=Cc1cc(=O)[nH]c(=O)n1C1O[C@H](CO)[C@@H](O)[C@H]1O (some centres undefined),12
